Measurements published in patent publication US6586455B1, “Treatment of liposarcomas using a combination of thiazolidinediones and retinoid X receptor selective agonists” (The Salk Institute for Biological Studies, priority 1996, dated 2003).

Columns and labels:
Format in all cases: cell-based
NIH-vector cells = assay: Adipocyte differentiation, oil red O staining, NIH-vector cells; details: 7 days; for % lipid containing cells: range over three experiments
Description: Simultaneous exposure of competent cells to both PPARγ and RXR-specific ligand was investigated to determine if such combination might provide a stronger adipogenic signal than a PPARγ ligand alone. The ability of the. […] It has previously been shown that wild-type NIH-3T3 cells express RXRα, but not PPARγ. NIH-vector and NIH-PPARγ cells were cultured as described in the Examples. […] After an additional four days of culture, cells were fixed and stained with oil red O. Data are presented in Table 1 as the range of morphologically recognizable differentiation observed for each line over three separate experiments.

NIH-PPARγ cells = assay: Adipocyte differentiation, oil red O staining, NIH-3T3 fibroblasts expressing PPARγ; details: 7 days; for % lipid containing cells: NIH-PPARγ cells, range over three experiments
Description: Simultaneous exposure of competent cells to both PPARγ and RXR-specific ligand was investigated to determine if such combination might provide a stronger adipogenic signal than a PPARγ ligand alone. The ability of the. […] It has previously been shown that wild-type NIH-3T3 cells express RXRα, but not PPARγ. NIH-vector and NIH-PPARγ cells were cultured as described in the Examples.

LS857 cells = assay: Differentiation / lipid accumulation of primary human liposarcoma cells LS857; details: 7 days
Description: (§1) Liposarcomas have presumably acquired one or more genetic defects that interfere with the course of normal adipocyte development. The observation that PPARγ is expressed consistently in these tumors raised the possibility that the malignant cells might be forced to complete the differentiation program by maximally activating the PPARγ pathway. To address this possibility, primary cells isolated from three human liposarcomas were cultured in vitro. Primary cell strains LS857 and LS175 were derived from well differentiated liposarcomas and LS707 was derived from an intermediate grade myxoid/round cell liposarcoma (see Table 3). High grade pleomorphic liposarcoma cells could not be expanded to sufficient numbers to permit studies of differentiation. A primary leiomyosarcoma cell line LM203 was cultured as a control. To confirm that these cultures consisted of malignant tumor-derived cells, cytogenetic analysis was performed.
(§2) When cultured in the presence of fetal bovine serum and insulin, conditions permissive for adipocyte differentiation, all three cell lines maintain a fibroblastic morphology. LS175 cells contained small amounts of stainable lipid under these conditions. […] The degree of morphologically recognizable differentiation varied from 40% in the LS857 cells to 75% in the LS175 cells. […] This experiment was performed at least twice with each cell strain with quantitatively and qualitatively similar results.
The ability of LG268 to promote differentiation of human liposarcoma cells was then examined. […] To further characterize the effects of PPARγ and RXR ligands on liposarcoma cells, the expression of adipocyte-specific markers were examined by Northern blotting. LS857 cells, like the tumor from which they were derived, express PPARγ mRNA. Treatment of LS857 cells with pioglitazone leads to the induction of two markers of terminal adipocyte differentiation, the MRNAs encoding aP2 and adipsin. […]

LS175 cells = assay: Differentiation / lipid accumulation of primary human liposarcoma cells LS175; details: 10 μM, 7 days
Description: as §1
as §2, with “[…]. […]” for “This experiment was performed at least twice with each cell strain with quantitatively and qualitatively similar results.”

| SMILES | % lipid containing cells (NIH-vector cells; 50 nM LG268 alone) [%] | adipogenic effect (in words) (NIH-vector cells) | % lipid containing cells (NIH-PPARγ cells; 50 nM LG268 alone) | stimulation of adipocyte differentiation (in words) (NIH-PPARγ cells; confluent NIH-PPARγ cells, 50 nM LG268, 1 μM pioglitazone) | lipid accumulation, oil red O, macroscopic view of culture dishes (LS857 cells; LS857, 5 μM thiazolidinedione, 50 nM LG268, four more days of culture) | adipocyte differentiation (in words) (LS857 cells; LS857 cells, 50 nM LG268, 10 μM pioglitazone) | % lipid containing cells (NIH-vector cells; 1 μM pioglitazone alone) [%] | degree of morphologically recognizable differentiation (LS175 cells) [%] | % lipid containing cells (NIH-PPARγ cells; 1 μM pioglitazone alone) | degree of morphologically recognizable differentiation (LS857 cells; LS857 cells, 10 μM) [%] |
| --- | --- | --- | --- | --- | --- | --- | --- | --- | --- | --- |
| Cc1cc2c(cc1C1(c3ccc(C(=O)O)cn3)CC1)C(C)(C)CCC2(C)C [LG268, 6-[1-(8 pentamethyl-5,6,7,8-tetrahydronaphthalen-2-yl)cyclopropyl]nicotinic acid] | 0 | no effect | 50-65% | significant stimulation of adipocyte differentiation | significant lipid accumulation | significant degree of adipocyte differentiation | – | – | – | – |
| CCc1ccc(CCOc2ccc(CC3SC(=O)NC3=O)cc2)nc1 (stereo not shown) [pioglitazone] | – | – | – | – | – | – | 0 | 75 | 60-70% | 40 |
